Data on one molecule can be found in PMC11997307, “Rat Sarcoma (RAS)-Protein-Targeting Synthetic Cell-Penetrating Peptide as an Anticancer Biomaterial” (Biomaterials Research, 2025).

The subject of series [1] is phospho-c-RAF and phospho-ERK1/2 in HT-29 cells. In words: Western blot of RAS-MAPK pathway, HT-29. The following applies: HT-29, 10-250 μM RBP 6 h then 50 ng/ml EGF 10 min. Format: cell-based, human. Here is the method: (§1) Protein expression was confirmed via Western blot analysis. Briefly, 9 × 10^5 cells were cultured in 100-mm-diameter dishes. When they reached 90% confluence, the cells were starved for 18 h in serum-free medium. […] At the end of the culture period, the cells were lysed for 20 min in cold lysis buffer on ice. Protein concentration was measured using bicinchoninic acid protein assays (Thermo Fisher Scientific, MA, USA). Equal aliquots of protein (40 μg) were boiled for 7 min in 5× sample buffer and separated by 10% SDS–PAGE. Proteins were transferred onto nitrocellulose membranes, followed by washing with Tris-buffered saline (TBS) containing 0.1% Tween 20 (TBST). The membranes were then blocked for 60 min at room temperature with 5% skim milk in TBST. Following the washing procedure, the membranes were incubated with primary antibodies (RAS, phospho-ERK1/2, ERK1/2, phospho-RAF proto-oncogene serine/threonine-protein kinase [phospho-c-RAF; S338], c-RAF [Cell Signaling Technology, Beverly, MA, USA], and GAPDH [Santa Cruz Biotechnology, Inc., Santa Cruz, CA, USA]) diluted in TBST containing 5% skim milk at 4 °C for 18 h. […] The membranes were subsequently washed 3 more times, and protein bands were detected using chemiluminescence reagents (West Pico PLUS, Thermo Fisher Scientific, USA).
For orientation: A western blot detects proteins with antibodies after separation by electrophoresis.

The test system of series [2] is MDA-MB-231 cell-derived tumors. Format: in vivo. As for the experimental part: Fertilized white leghorn eggs, sourced from the Société Française de Production Avicole (St. Brieuc, France), were incubated for 9 d at 37.5 °C with 50% relative humidity. On embryonic day 9 (E9), a small hole was drilled into the air sac to lower the chorioallantoic membrane (CAM), and a 1-cm^2 window was created in the eggshell above the CAM. The MDA-MB-231 cell line was cultivated in DMEM supplemented with 10% FBS (and 1% penicillin/streptomycin). Cells (at 90% confluency, passages 30 to 32) were detached from culture plates with trypsin/EDTA, rinsed with complete medium, and suspended in graft medium. An inoculum of 1 × 10^6 cells was added onto the CAM of each egg. The eggs were randomly assigned to groups. On day 10 (E10), tumors were detectable. They were then treated every 2 d for 9 d (E11, E13, E15, and E17); specifically, 100 μl of the vehicle or 100 μl of the peptide (10 mg/kg) was added dropwise to the tumor. Angiogenesis was estimated by calculating the number of vessels on the CAM that irrigated tumors. Because tumors generated from MDA-MB-231 cells are hemorrhagic, images were obtained at E16 (2 d before collection to ensure that all vessels in the CAM were visible). On day 18 (E18), the upper portion of the CAM containing the tumor was removed, washed in PBS, and then directly transferred to paraformaldehyde (for 48 h for fixation). The tumors were then carefully removed from normal CAM tissue and weighed. The extent of treatment toxicity was evaluated according to the number of dead embryos after 9 d of treatment and observation of visible macroscopic abnormalities at the end point.
In parallel, a 1-cm^2 portion of the lower CAM was collected to evaluate the number of metastatic cells. Genomic DNA was extracted from the CAM and analyzed for human Alu sequences via quantitative polymerase chain reaction (qPCR) with specific primers. Calculation of the Cq for each sample, the mean Cq, and the number of metastases for each group were performed with the Bio-Rad CFX Maestro software (Bio-Rad, Hercules, CA, USA). According to the real-time PCR data markup language data standard (http://www.rdml.org), Cq is defined as the cycle at which the amplification curve […] (fractional PCR cycles). The Cq value is obtained in the exponential phase, where the qPCR curve is linear. This is the basic result of qPCR: lower Cq values indicate higher initial copy numbers of the target gene. When the PCR efficiency is 100%, a difference of 1 cycle between 2 reactions means that there are 2 times more copies (genes) in the reaction with the lower Cq value than in the reaction with the higher Cq value. One-way analysis of variance (ANOVA) with post hoc tests was performed on the data.
On day 18 (E18), 5 tumor samples per group (different from the tumor samples used for tumor weight determination) were collected to evaluate the infiltration of immune cells. Each tumor sample was cut to a small size (<0.5 cm^3) and kept in 5 volumes of RNAlater solution at 4 °C. The extracted RNA was analyzed via reverse transcription qPCR with specific primers for chicken CD3 and CD4 sequences. The Bio-Rad CFX Maestro software was used to calculate the Cq values for each sample, determine the mean Cq, and quantify the relative expression of immune cell markers in each group.
Three tumors per group were harvested and fixed in 4% formaldehyde, washed, and then stored in 70% ethanol until needed for experiments. The tumors were cut to a standard size and placed in an embedding cassette. The paraffin blocks were sectioned at a thickness of approximately 3 to 5 μm. The cells were placed on a glass slide, stained with hematoxylin and eosin (H&E) and Ki-67, and covered in an automated machine. Pictures were taken via a microscope (Olympus BX60, serial no. 7D04032, Shinjuku, Japan) at a magnification of ×4 and a microscope camera (Olympus DP73, serial no. OH05504, Shinjuku, Japan). […]

For series [3], the system named is phospho-c-RAF and phospho-ERK1/2 in MCF-7 cells. In words: Western blot of RAS-MAPK pathway, MCF-7. To be noted: MCF-7, 10-250 μM RBP 6 h then 50 ng/ml EGF 10 min. In kind it is cell-based, human. As for the experimental part: as §1
Setting [4] is: chicken egg CAM tumors, 10 mg/kg, E18, 5 tumors per group, normalized to GAPDH.

As for `C[C@@H](O)[C@H](NC(=O)[C@H](CO)NC(=O)[C@H](CS)NC(=O)[C@H](CCCCN)NC(=O)CN)C(=O)N[C@@H](CCCNC(=N)N)C(=O)NCC(=O)N[C@@H](CCCNC(=N)N)C(=O)N[C@@H](CCCCN)C(=O)N[C@@H](CS)C(=O)N[C@@H](CS)C(=O)N[C@@H](CCCNC(=N)N)C(=O)N[C@@H](CCCNC(=N)N)C(=O)N[C@@H](CCCCN)C(=O)N[C@@H](CCCCN)C(N)=O` [RBP], the RAF activation entry in series [1] and in series [3] was “did not inhibit” throughout. For the same molecule, the ERK1/2 phosphorylation entry in series [1] (n = 3) and in series [3] (n = 3) was “did not inhibit” throughout. Moreover, the “Ki-67 expression in tumor sections (IHC)” value in series [2] (chicken egg CAM tumors, 10 mg/kg) is recorded as “reduced Ki-67 expression”. The “infiltration of CD3-positive immune cells in tumors (chicken CD3 mRNA, RT-qPCR)” value in series [2] (setting [4]) is recorded as “increased infiltration”. The “infiltration of CD4-positive immune cells in tumors (chicken CD4 mRNA, RT-qPCR)” value in series [2] (setting [4]) was “increased infiltration”. In addition, the formation of microvessels entry in series [2] (chicken egg CAM, 10 mg/kg, E16) is listed as “significantly suppressed”. Further, the “metastasis of MDA-MB-231 cells to lower CAM (human Alu qPCR)” value in series [2] (chicken egg CAM, 10 mg/kg, E18, P < 0.01 vs Neg Ctrl) was “significantly inhibited”. In addition, the “number of vessels reaching and feeding the tumors” value in series [2] (chicken egg CAM, 10 mg/kg, images at E16, P < 0.05 vs Neg Ctrl) is given as “significantly reduced”. Further, in series [2] (chicken egg CAM, MDA-MB-231, 10 mg/kg at E11, E13, E15, E17, collected E18, mean ± SD, P < 0.01 vs Neg Ctrl (54.40 ± 12.22 mg)), the average tumor weight amounted to 22.10 ± 5.86 mg. Besides, in series [2] (in vivo, 10 mg/kg), the “embryo mortality compared to negative control” value is on record as “no statistically significant difference”.
